Among the test systems are KM12 colon; NCI-H522 lung; OVCAR-8 ovarian; MDA-MB-435; PC-3 prostate; NCI-H226 lung; MDA-MB-231 breast; NCI-H460 lung; HCT-15 colon; SN12C renal.
Holding throughout (test): inhibition of tumour cell growth, NCI panel, 48 h

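A five-concentration, 48-hour dose response in 96-well plates underlies each endpoint, interpolated linearly between surrounding concentrations. GI50 marks 50% less growth. TGI: total growth inhibition.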

As to `C(=C\c1nccc2c1[nH]c1ccccc12)/c1ccccc1`, the GI50 in the assay on KM12 colon was 2.15 µM; in the assay with NCI-H522 lung, 2.38 µM; in the assay with OVCAR-8 ovarian it was 4.69 µM; in the assay on MDA-MB-435, 0.356 µM; with PC-3 prostate it was 2.82 µM; with NCI-H226 lung, 4.09 µM. Besides, the GI50 in the assay with MDA-MB-231 breast was 1.76 µM; in the assay with NCI-H460 lung, 3.28 µM; in the assay on HCT-15 colon, 2.43 µM; with SN12C renal, 3.83 µM. The TGI was 11.3 µM with KM12 colon; 7.94 µM with NCI-H522 lung; greater than 100 µM in the assay on OVCAR-8 ovarian; 1.81 µM in the assay with MDA-MB-435; greater than 100 µM in the assay with PC-3 prostate; greater than 100 µM with NCI-H226 lung. Moreover, the TGI in the assay on MDA-MB-231 breast came out at 8.02 µM; in the assay with NCI-H460 lung, 13.7 µM; in the assay on HCT-15 colon, 17.5 µM; in the assay with SN12C renal, 76.7 µM.

Turning to `Oc1c(I)cc(-c2nc3ccccc3s2)cc1CN(Cc1ccccn1)Cc1ccccn1`, the GI50 is 0.4 µM in the assay with KM12 colon; 0.415 µM in the assay with NCI-H522 lung; 0.335 µM in the assay on OVCAR-8 ovarian; 0.428 µM in the assay with MDA-MB-435; 0.308 µM with PC-3 prostate; 0.269 µM in the assay with NCI-H226 lung. In addition, the GI50 is 0.217 µM in the assay on MDA-MB-231 breast, 0.327 µM in the assay on NCI-H460 lung, 0.379 µM in the assay on HCT-15 colon and 0.446 µM in the assay on SN12C renal. Besides, the TGI in the assay with KM12 colon is 17.4 µM; with NCI-H522 lung, 14.4 µM; with OVCAR-8 ovarian, 37.5 µM; with MDA-MB-435 it was 14.3 µM; in the assay with PC-3 prostate it was greater than 100 µM; with NCI-H226 lung, 3.16 µM. The TGI in the assay on MDA-MB-231 breast is 10.4 µM; in the assay with NCI-H460 lung, 5.94 µM; with HCT-15 colon, greater than 100 µM; with SN12C renal it was 11.6 µM.

For the molecule `O=C(Nc1cccc(O)c1)c1cccc(NC2=C(Cl)C(=O)N(Cc3ccccc3)C2=O)c1`, the GI50 is 11.4 µM in the assay on KM12 colon; 3.08 µM with NCI-H522 lung; 13.1 µM in the assay with OVCAR-8 ovarian; 2.59 µM in the assay with MDA-MB-435; 8.29 µM in the assay with PC-3 prostate; 18.7 µM in the assay with NCI-H226 lung. Moreover, the GI50 in the assay on MDA-MB-231 breast is 11.9 µM; with NCI-H460 lung it was 36.8 µM; in the assay on HCT-15 colon, 16.2 µM; with SN12C renal, 8.26 µM. In addition, the TGI was 25 µM with KM12 colon; 17.4 µM with NCI-H522 lung; 43.5 µM with OVCAR-8 ovarian; 11.4 µM with MDA-MB-435; 25 µM with PC-3 prostate; 44.4 µM in the assay on NCI-H226 lung. In addition, the TGI in the assay on MDA-MB-231 breast was 31.9 µM; with NCI-H460 lung it was greater than 100 µM; in the assay on HCT-15 colon, 30.1 µM; with SN12C renal, 22.1 µM.

For `NC(=S)N/N=C\c1nccc2c(N)cccc12`, the GI50 with KM12 colon was 0.38 µM; in the assay with NCI-H522 lung, 0.178 µM; in the assay on OVCAR-8 ovarian it was 0.222 µM; in the assay on MDA-MB-435, 0.379 µM; in the assay on PC-3 prostate, 0.452 µM; in the assay with NCI-H226 lung it was 0.282 µM. In addition, the GI50 in the assay on MDA-MB-231 breast was 0.471 µM; with NCI-H460 lung, 0.303 µM; in the assay with HCT-15 colon, 0.426 µM; in the assay on SN12C renal, 0.314 µM. The TGI with KM12 colon is greater than 100 µM; in the assay with NCI-H522 lung, 0.509 µM; with MDA-MB-435 it was greater than 100 µM; in the assay on PC-3 prostate, greater than 100 µM; in the assay with NCI-H226 lung, 1.08 µM; in the assay on MDA-MB-231 breast, greater than 100 µM. The TGI with NCI-H460 lung was 2.04 µM; in the assay on HCT-15 colon, greater than 100 µM; in the assay with SN12C renal, greater than 39.5 µM.

For the molecule `O=S(=O)(NCCNc1cc(-c2cn(-c3ccccc3)nc2-c2cccc(O)c2)ccn1)c1ccc(Cl)cc1`, the GI50 in the assay on KM12 colon is 2.63 µM; in the assay on NCI-H522 lung it was 2.16 µM; in the assay on OVCAR-8 ovarian, 3.72 µM; in the assay with MDA-MB-435, 2.86 µM; in the assay with PC-3 prostate it was 2.45 µM; in the assay on NCI-H226 lung, 4.02 µM. Moreover, the GI50 was 2.14 µM with MDA-MB-231 breast, 3.34 µM with NCI-H460 lung, 2.14 µM in the assay on HCT-15 colon and 3.47 µM with SN12C renal. Also, the TGI in the assay with KM12 colon was found to be 9.62 µM; in the assay with NCI-H522 lung, 5.79 µM; with OVCAR-8 ovarian, 22.6 µM; with MDA-MB-435, 10.1 µM; with PC-3 prostate, 12 µM; in the assay on NCI-H226 lung, 21.2 µM. Moreover, the TGI in the assay on MDA-MB-231 breast was found to be 5.56 µM; in the assay on NCI-H460 lung it was 11.9 µM; with HCT-15 colon, 6.42 µM; in the assay on SN12C renal it was 14 µM.

As to `O=S(=O)(O)/C(=C\c1ccccc1)c1ccccc1` (tested in a mixture with another compound), the TGI with KM12 colon, with NCI-H522 lung, in the assay with OVCAR-8 ovarian, in the assay on MDA-MB-435, in the assay with PC-3 prostate and in the assay with NCI-H226 lung was greater than 100 µM in each case. Also, the TGI with MDA-MB-231 breast, with NCI-H460 lung, in the assay with HCT-15 colon and with SN12C renal was greater than 100 µM in each case.

With `C/C1=C\C/C=C(\C)[C@H]2CC(CC/C(C)=C/CC1)[C@](C)(C=O)O2`, the GI50 was greater than 100 µM in the assay with KM12 colon; 59.6 µM in the assay with NCI-H522 lung; greater than 100 µM in the assay on OVCAR-8 ovarian; 66.1 µM in the assay with MDA-MB-435; 88.2 µM with PC-3 prostate; greater than 100 µM in the assay on NCI-H226 lung. For the same molecule, the GI50 in the assay with MDA-MB-231 breast was greater than 100 µM; in the assay with NCI-H460 lung, 85.1 µM; in the assay on HCT-15 colon it was greater than 100 µM; in the assay on SN12C renal it was greater than 100 µM. For the same molecule, the TGI in the assay with KM12 colon, with NCI-H522 lung, in the assay on OVCAR-8 ovarian, in the assay with MDA-MB-435, in the assay on PC-3 prostate and with NCI-H226 lung was greater than 100 µM throughout. The TGI with MDA-MB-231 breast, with NCI-H460 lung, in the assay with HCT-15 colon and with SN12C renal was greater than 100 µM each time.

Take `C=C1CC2(CCCC3(CC(=C)C(=O)O3)C2(C)C)OC1=O` (centres undefined): the TGI in the assay with KM12 colon is 21.8 µM; in the assay on NCI-H522 lung it was 3.7 µM; in the assay with OVCAR-8 ovarian, 7.55 µM; with MDA-MB-435, 10.1 µM; in the assay with PC-3 prostate, 21.1 µM; in the assay on NCI-H226 lung, 6.57 µM. Further, the TGI was found to be 17.7 µM with MDA-MB-231 breast, 46.3 µM with NCI-H460 lung, 1.99 µM in the assay with HCT-15 colon and 10.7 µM with SN12C renal.

The record behind these values is PubChem BioAssay (NCI).
